This note sets out measurements from patent US20060281755A1, “SYNERGISTIC MODULATION OF FLT3 KINASE USING AMINOPYRIMIDINES KINASE MODULATORS” (priority 2005, published 2006).

Like-named read-outs stand apart in the source and are kept apart here.

One data set concerns MV4-11 cells. In words: Annexin V staining (apoptosis) in MV4-11 cells. Format: cell-based, human. The note with it: combination (fixed ratio 4:1) versus agent alone, 48 hours. From the text: The ultimate goal of treatment for FLT3 related disorders is to kill the disease causative cells and to cause regression of disease. […] Annexin V binding to phosphotidyl serine that has translocated from the inner leaflet of the plasma membrane to the outer leaflet of the plasma membrane and is a well established way to measure apoptosis of cells. See van Engeland M., L. J. Nieland, et al. (1998) “Annexin V-affinity assay: a review on an apoptosis detection system based on phosphatidylserine exposure.” Cytometry. 31(1):1-9.
After the compound incubations, treated cells were harvested and stained with Annexin V-PE and 7-AAD using the Guava Nexin apoptosis kit according to the protocol in the Biological Activity Measurements section hereafter. Annexin V staining peaks at 60% because cells late in apoptosis begin to fall apart and are considered debris. […] Statistical analysis using the above described method of Chou and Talalay was also performed to determine the synergy of the combination. […] The magnitude of the synergistic induction of apoptosis of MV4-11 cells by the combination of an FTI and a FLT3 inhibitor could not be predicted by those skilled in the art. […]
Annexin V Staining. […] All annexin positive cells were considered apoptotic and percent Annexin positive cells was calculated.

For the next data set, the system named is Baf3-ITD cells. In words: 72-hour cell proliferation assay and combination index analysis, Baf3-ITD. Format: cell-based, murine. The note with it: with single sub-IC50 dose of FLT3 inhibitor Compound A (50 nM). As to the method:
Dose responses for the individual compounds alone were determined for each cell line using a standard 72-hour cell proliferation assay (see FIGS. 6.1-6.8). […] Each of these chemically distinct compounds alone has potential for the treatment of disorders related to FLT3, such as FLT3 positive AML. […] The FLT3 inhibitors tested had no effect on THP-1 proliferation. […] (See FIGS. 10.1-10.8 and Tables 1-3, hereafter.)
To statistically evaluate the synergy of a FLT3 inhibitor and an FTI in FLT3 dependent cell lines, dosing combinations were evaluated by the method of Chou and Talalay. See Chou T C, Talalay P. (1984) “Quantitative analysis of dose-effect relationships: the combined effects of multiple drugs or enzyme inhibitors.” Adv Enzyme Regul. 22:27-55. Using this method inhibitors are added simultaneously to cells in a ratio of the IC50 dose of each compound alone. […] Using this method, multiple FTI and FLT3 combinations were evaluated. […]
Combination Index Analysis. To determine growth inhibition synergy of a FTI and FLT3 inhibitor combination based on the method of Chou and Talalay (Chou and Talalay. See Chou T C, Talalay P. (1984) “Quantitative analysis of dose-effect relationships: the combined effects of multiple drugs or enzyme inhibitors.” Adv Enzyme Regul. 22:27-55.), fixed ratio combination dosing with isobolar statistical analysis was performed. […]

For data set [1] the following is noted: either agent alone or in combination. Here is the method: Mice were dosed orally by gavage with vehicle (control group) or compound at various doses twice-daily (b.i.d.) during the week and once-daily (q.d.) on weekends. Dosing was continued for 11 consecutive days, depending on the kinetics of tumor growth and size of tumors in vehicle-treated control mice. If tumors in the control mice reached 10% of body weight (˜2.0 grams), the study was to be terminated. […] During the study, tumor growth was measured three times-a-week (M, W, F) using electronic Vernier calipers. Tumor volume (mm^3) was calculated using the formula […], where L=length (mm) and W=width (shortest distance in mm) of the tumor. […] Mice were closely examined daily at each dose for overt clinical signs of adverse, drug-related side effects. […]
If tumors in the control mice reached ˜10% of body weight (˜2.0 grams), the study was to be terminated. […] During the study, tumor growth was measured three times-a-week (M, W, F) using electronic Vernier calipers. […] Body weight was measured three times-a-week and a loss of body weight >10% was used as an indication of lack of compound tolerability. […]
Dosing was continued for sixteen consecutive days. Tumor growth was measured three times-a-week (Monday, Wednesday, Friday) using electronic Vernier calipers. Body weight was measured three times-a-week and a loss of body weight >10% was used as an indication of lack of compound tolerability.

With `Cn1cncc1C(N)(c1ccc(Cl)cc1)c1ccc2c(c1)c(-c1cccc(Cl)c1)cc(=O)n2C` (single isomer, unassigned; (+)) [Tipifarnib, (+)-6-[amino(4-chlorophenyl)(1-methyl-1H-imidazol-5-yl)methyl]-4-(3-chlorophenyl)-1-methyl-2(1H)-quinolinone], the “shift of EC50 for the induction of annexin V staining” value with MV4-11 cells is given as “more than eight-fold”. Moreover, in the data set on Baf3-ITD cells, the “increase in potency of Tipifarnib” value is recorded as “more than 3 fold”. Moreover, the overt toxicity result in data set [1] (9-day treatment) and in data set [1] (16-day treatment) was “No overt toxicity” in each case.
